Structures can show the parent of a compound that is named as a salt.
The compounds below were run on T1, 1N4R p-tau (assay: p-tau aggregation modulator screen of 1280-compound library (ThS fluorescence net change over 16 h)). Details: not given.
T1 construct: made in house; host or cells: E. coli (PIMAX system)
Format: biochemical
Parameters: key to PTAI>2SD: *: PTAI>2SD
Compound `O=C(NCNC(=O)NC1C(=O)NC(=O)N1CO)NC1C(=O)NC(=O)N1CO` (stereo not shown) [Imidurea] has a ThS net change of 463.
For `Cc1ccc(O)c([C@H](CCN(C(C)C)C(C)C)c2ccccc2)c1` [Tolterodine tartrate], the ThS net change was 422.
Compound `O=P1(N(CCCl)CCCl)NCCCO1` (stereo not shown) [Cyclophosphamide] has a ThS net change of 440.

Same assay, conditions: 1280-compound library screen; ThS fluorescence net change over 16 h
`Nc1nc2c(ncn2CCC(CO)CO)c(=O)[nH]1` [Penciclovir] gave a ThS net change of 397.
`CC(CN(C)C)CN1c2ccccc2CCc2ccccc21.O=C(O)/C=C\C(=O)O` (stereo not shown) [Trimipramine maleate salt] showed a ThS net change of 399.
For `CC(C)[C@H](N)C(=O)OCCOCn1cnc2c(=O)[nH]c(N)nc21` [Valacyclovir hydrochloride], the ThS net change was 396.
`CCCc1cc(C(N)=S)ccn1` [Prothionamide] showed a ThS net change of 412.
`COc1cc(C(=O)NC2CCCNC2)cc(OC)c1OC` (stereo not shown) [Troxipide] was tested, and the ThS net change was 407.
`N=C(N)NCc1cccc(I)c1.O=S(=O)(O)O` [Iobenguane sulfate] gave a ThS net change of 411.
`CN(CCOc1ccc(NS(C)(=O)=O)cc1)CCc1ccc(NS(C)(=O)=O)cc1` [Dofetilide] was tested, and the ThS net change was 388.
`Clc1cnccn1` [2-Chloropyrazine] was tested, and the ThS net change was 410.
Work on `Cc1cc(C(=O)NNCc2ccccc2)no1` [Isocarboxazid] yielded a ThS net change of 400.
`CCOC(=O)n1ccn(C)c1=S` [Carbimazole] was tested, and the ThS net change was 380.
`Nc1ccc(S(=O)(=O)c2ccc(N)cc2)cc1` [Dapsone] showed a ThS net change of 382.
`CNCCCC1c2ccccc2C=Cc2ccccc21` [Protriptyline hydrochloride] was tested, and the ThS net change was 412.
Compound `NC(=O)CN1CCCC1=O` [Piracetam] has a ThS net change of 406.
`CC[N+](C)(CC)CCOC(=O)C1c2ccccc2Oc2ccccc21` [Methantheline bromide] was tested, and the ThS net change was 400.
Work on `CC(C)NCC(O)COc1ccc(CC(N)=O)cc1` (stereo in doubt) [(R)-(+)-Atenolol] yielded a ThS net change of 395.

Same assay, conditions: flag: p-tau aggregation inhibitor, ThS net change more than 2 SD from mean
For `CCCCOc1ccc(CC(=O)NO)cc1` [Bufexamac], the “PTAI>2SD” value was “*”.

Same assay, conditions: library screen, ThS fluorescence net change over 16 h with p-tau
`CCCCOc1cc(C(=O)OCCN(CC)CC)ccc1N` [Benoxinate hydrochloride] gave a ThS net change of 312.
`CC(C)(C)c1ccc(C(O)CCCN2CCC(C(O)(c3ccccc3)c3ccccc3)CC2)cc1` (stereo not shown) [Terfenadine] showed a ThS net change of 251.
For `Nc1nc(N)nc(-c2cc(Cl)ccc2Cl)n1` [Irsogladine maleate], the ThS net change was 308.
`[H]/N=C(\N/C(=N/[H])NCCCCCCNC(=N)NC(=N)Nc1ccc(Cl)cc1)Nc1ccc(Cl)cc1` [Chlorhexidine] showed a ThS net change of 317.
With `CN(C)[C@@H]1C(O)=C(C(N)=O)C(=O)[C@@]2(O)C(O)=C3C(=O)c4c(O)ccc(Cl)c4[C@@](C)(O)[C@H]3C[C@@H]12` [Chlortetracycline hydrochloride] the ThS net change was 223.
`CCCCOc1ccc(CC(=O)NO)cc1` [Bufexamac] was tested, and the ThS net change was 140.

Same assay, conditions: p-tau aggregation modulator screen of 1280-compound library; ThS fluorescence net change
For `C#C[C@]1(O)CC[C@H]2[C@@H]3CCC4=C(CCC(=O)C4)[C@H]3CC[C@@]21C` [Norethynodrel], the ThS net change was 341.
Compound `CCN1CCCC1CNC(=O)c1cc(S(N)(=O)=O)ccc1OC` (stereo not shown) [Sulpiride] has a ThS net change of 373.
In the case of `COC(=O)Nc1nc2cc(SC(C)C)ccc2[nH]1` [Methiazole], the ThS net change is reported as 365.
Compound `C#C[C@]1(OC(C)=O)CC[C@H]2[C@@H]3CCC4=C[C@@H](OC(C)=O)CC[C@@H]4[C@H]3CC[C@@]21C` [Ethynodiol diacetate] has a ThS net change of 355.
`CCN(CC)CCNC(=O)COc1ccc(OC)cc1.Cl` [Mefexamide hydrochloride] gave a ThS net change of 331.
Compound `O=C(NCCNCC(O)COc1ccc(O)cc1)N1CCOCC1` (stereo not shown) [Xamoterol hemifumarate] has a ThS net change of 378.
In the case of `O=C(O)CCC(=O)c1ccc(-c2ccccc2)cc1` [Fenbufen], the ThS net change is reported as 368.
`CCCCN1CCCCC1C(=O)Nc1c(C)cccc1C` (stereo not shown) [Bupivacaine hydrochloride] was tested, and the ThS net change was 364.
For `CC(CN(C)C)C(C)(O)Cc1ccc(Cl)cc1.Cl` (stereo not shown) [Clobutinol hydrochloride], the ThS net change was 336.
For `CC(C(=O)O)c1ccc(-c2ccccc2)c(F)c1` (stereo not shown) [Flurbiprofen], the ThS net change was 377.
`O=C(O)/C=C\C(=O)O.O=C(O)/C=C\C(=O)O.c1ccc2nc(N3CCNCC3)ccc2c1` [Quipazine dimaleate salt] showed a ThS net change of 377.
`C=CCc1ccccc1OCC(O)CNC(C)C` (stereo not shown) [Alprenolol hydrochloride] gave a ThS net change of 376.
`CCCN(CCC)C(=O)C(CCC(=O)O)NC(=O)c1ccccc1` (stereo not shown) [Proglumide] was tested, and the ThS net change was 331.
Work on `CC(Cc1cccc(C(F)(F)F)c1)NCCOC(=O)c1ccccc1` (stereo not shown) [Benfluorex] yielded a ThS net change of 375.
`COc1ccccc1N1CCN(CCCCNC(=O)c2ccc3ccccc3c2)CC1.Cl.Cl` [DO 897/99] showed a ThS net change of 374.

Same assay, conditions: p-tau aggregation modulator screen of 1280-compound library; […]
In the case of `COc1cc2nc(N3CCN(C(=O)c4ccco4)CC3)nc(N)c2cc1OC` [Prazosin hydrochloride], the ThS net change is reported as 367.
With `CN1CCCN(C(c2ccccc2)c2ccc(Cl)cc2)CC1.Cl.Cl` (stereo not shown) [Homochlorcyclizine dihydrochloride] the ThS net change was 343.
For `CCC(=O)OCC(=O)[C@@]1(OC(=O)CC)[C@H](C)C[C@H]2[C@H]3[C@H]([C@@H](O)C[C@@]21C)[C@@]1(C)C=CC(=O)C=C1C[C@H]3Cl` [Alclometasone dipropionate], the ThS net change was 363.

Same assay, conditions: p-tau aggregation modulator screen of the compound library, ThS fluorescence net change
`CC(C)(C)C(=O)OCOC(=O)[C@@H]1N2C(=O)[C@@H](NC(=O)[C@H](N)c3ccccc3)[C@H]2SC1(C)C` [Pivampicillin] was tested, and the ThS net change was 481.
For `COc1ccc2c(c1)C(=O)N(CCc1ccc(S(=O)(=O)NC(=O)NC3CCCCC3)cc1)C(=O)C2(C)C` [Gliquidone], the ThS net change was 492.
In the case of `CS(=O)(=O)c1ccc([C@@H](O)[C@@H](CF)NC(=O)C(Cl)Cl)cc1` [Florfenicol], the ThS net change is reported as 433.
`C[C@]12CCC(=O)C=C1C=C[C@@H]1[C@@H]2CC[C@@]2(C)[C@H]1CC[C@@]21CCC(=O)O1` [Canrenone] gave a ThS net change of 462.
`CN1C(C(=O)Nc2ccccn2)=C(O)c2sccc2S1(=O)=O` [Tenoxicam] was tested, and the ThS net change was 416.
`C#C[C@]1(O)CC[C@H]2[C@@H]3CCC4=Cc5oncc5C[C@]4(C)[C@H]3CC[C@@]21C` [Danazol] showed a ThS net change of 495.
In the case of `CC1(O)CCOC(=O)C1` (stereo not shown) [Mevalonic-D, L acid lactone], the ThS net change is reported as 438.
In the case of `Nc1c2c(nc3ccccc13)CCCC2O.O=C(O)/C=C\C(=O)O` (racemic) [Hydroxytacrine maleate (R,S)], the ThS net change is reported as 423.
`O=C(O)CN(CCN(CC(=O)O)CC(=O)O)CCN(CC(=O)O)CC(=O)O` [Pentetic acid] showed a ThS net change of 480.
For `CCCNC(C)C(=O)Nc1c(C)csc1C(=O)OC` (stereo not shown) [Articaine hydrochloride], the ThS net change was 450.
`C[C@@H]1C[C@H]2[C@@H]3C[C@H](F)C4=CC(=O)C=C[C@]4(C)[C@@]3(Cl)[C@@H](O)C[C@]2(C)[C@H]1C(=O)COC(=O)C(C)(C)C` [Clocortolone pivalate] gave a ThS net change of 414.
For `COc1ccc(CN2CCN(C(c3ccc(F)cc3)c3ccc(F)cc3)CC2)c(OC)c1OC.Cl` [Lomerizine hydrochloride], the ThS net change was 458.
`CCCc1nn(C)c2c(=O)[nH]c(-c3cc(S(=O)(=O)N4CCN(C)CC4)ccc3OCC)nc12` [Sildenafil] showed a ThS net change of 461.
`CCCCCN(CCCCC)C(=O)C(CCC(=O)[O-])NC(=O)c1ccc(Cl)c(Cl)c1.[Na+]` (stereo not shown) [Lorglumide sodium salt] was tested, and the ThS net change was 520.
`CC(=O)OCC(=O)[C@@]12OC3(CCCC3)O[C@@H]1C[C@H]1[C@@H]3CCC4=CC(=O)C=C[C@]4(C)[C@@]3(F)[C@@H](O)C[C@@]12C` [Amcinonide] gave a ThS net change of 477.

— PMC7539012, “Hyperphosphorylated tau aggregation and cytotoxicity modulators screen identified prescription drugs linked to Alzheimer's disease and cognitive functions” (Scientific Reports, 2020)
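Wherever ThS net change is given: 30 µM compound with 6 µM p-tau over 16 h.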
